Laboratory results published in US10626125B2, “1,1,1-trifluoro-3-hydroxypropan-2-yl carbamate derivatives as MAGL inhibitors” (PFIZER INC., priority 2017, dated 2020).
Where two headings read alike, the source gives them in different places.

Columns and labels:
[1] = biological target: T1, human recombinant Monoacylglycerol Lipase (Homo sapiens, UniProt Q99685); assay: MAGL enzymatic assay (IC50; 7-HCA substrate added at T=0 min or T=30 min); assay type: biochemical
T1 sequence (Q99685 1-303): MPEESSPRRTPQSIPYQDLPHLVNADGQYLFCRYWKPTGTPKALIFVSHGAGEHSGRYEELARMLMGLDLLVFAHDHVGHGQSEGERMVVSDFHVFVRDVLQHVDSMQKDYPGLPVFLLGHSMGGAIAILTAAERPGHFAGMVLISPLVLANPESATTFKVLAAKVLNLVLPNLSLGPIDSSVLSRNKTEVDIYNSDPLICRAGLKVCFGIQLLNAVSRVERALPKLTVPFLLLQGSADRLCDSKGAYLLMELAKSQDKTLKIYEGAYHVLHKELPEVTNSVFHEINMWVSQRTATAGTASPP

[2] = biological target: T1, human recombinant Monoacylglycerol Lipase; assay: MAGL inactivation (kinact/KI from enzyme progress curves, T=0 min protocol); conditions: from plot of Kobs vs. compound concentration, geometric mean of 2-5 determinations (b: ≥6)
[3] = MAGL (T = 30 min) IC50, substrate 7-HCA added after 30 minute incubation (T=30 min), geometric mean of 2-5 determinations unless otherwise indicated
[4] = substrate 7-HCA added immediately (T=0 min), geometric mean of 2-5 determinations unless otherwise indicated, read-out: MAGL (T = 0 min) IC50
[5] = read-out: MAGL (T=30 min) IC50, 30 minute incubation of compound with MAGL enzyme before addition of 7-HCA substrate

| IC50 [1, 3] | IC50 [1, 4] | MAGL kinact/KI [2] | IC50 [1, 5] | IC50 ([1]; MAGL (T=30 min) IC50, 30 minute incubation of compound with MAGL enzyme before addition of 7-HCA substrate) | Compound |
| --- | --- | --- | --- | --- | --- |
| 2 nM | 20 nM | 25500 1/s per M |  |  | O=C(O[C@H](CO)C(F)(F)F)N1CCC2(CC1)CC(c1ccccc1F)CO2 (single isomer, unassigned) [Example 25] |
| 5 nM | 43 nM | 5180 1/s per M |  |  | O=C(O[C@H](CO)C(F)(F)F)N1CCC2(CC1)CC(c1ccc(C(F)F)cn1)CO2 (single isomer, unassigned) [Example 39] |
| 3 nM | 31 nM | 23000 1/s per M |  |  | O=C(O[C@H](CO)C(F)(F)F)N1CCC2(CC1)CC(c1cc(C(F)F)ccn1)CO2 (single isomer, unassigned) [Example 35] |
| 24 nM | 200 nM | 1610 1/s per M |  |  | N#Cc1ccc(C2COC3(CCN(C(=O)O[C@H](CO)C(F)(F)F)CC3)C2)nc1 (single isomer, unassigned) [Example 38] |
| 0.4 nM | 5 nM | 233000 1/s per M |  |  | O=C(O[C@H](CO)C(F)(F)F)N1CCC2(CC1)CC(c1c(F)cccc1F)CO2 (single isomer, unassigned) [Example 32] |
| 0.6 nM | 4 nM | 82100 1/s per M |  |  | O=C(O[C@H](CO)C(F)(F)F)N1CCC2(CC1)CC(c1cccc(C(F)F)n1)C2 [Example 77, (2R)-1,1,1-trifluoro-3-hydroxypropan-2-yl 2-[6-(difluoromethyl)pyridin-2-yl]-7-azaspiro[3.5]nonane-7-carboxylate] |
| 4 nM | 32 nM | 17000 1/s per M |  |  | N#Cc1ccc(C2COC3(CCN(C(=O)O[C@H](CO)C(F)(F)F)CC3)C2)c(F)c1 (single isomer, unassigned) [Example 72] |
|  |  |  | 1 nM |  | O=C(OC(CO)C(F)(F)F)N1CCC2(CC1)CC(c1ccc(F)cc1)CO2 (single isomer, unassigned) [diastereomer of Example 34] |
|  |  |  | 31 nM |  | O=C(O[C@H](CO)C(F)(F)F)N1CCC2(CC1)CC(c1ccc(C(F)F)cn1)CO2 (single isomer, unassigned) [diastereomer of Example 39] |
|  |  |  | 20 nM |  | O=C(OC(CO)C(F)(F)F)N1CCC2(CC1)CC(c1ccccn1)CO2 (single isomer, unassigned) [diastereomer of Example 41] |
|  |  |  |  | 1 nM | O=C(O[C@H](CO)C(F)(F)F)N1CCC2(CC1)CC(c1c(F)cccc1F)CO2 (single isomer, unassigned) [diastereomer of Example 32] |
|  |  |  | 74 nM |  | N#Cc1cccc(C2CCOC3(CCN(C(=O)OC(CO)C(F)(F)F)CC3)C2)c1 (single isomer, unassigned) [diastereomer of Example 73] |
|  |  |  | 15 nM |  | O=C(OC(CO)C(F)(F)F)N1CCC2(CCC(c3ccc(F)cn3)CO2)CC1 (single isomer, unassigned) [diastereomer of Example 74] |
|  |  |  | 23 nM |  | N#Cc1ccc(C2COC3(CCN(C(=O)O[C@H](CO)C(F)(F)F)CC3)C2)cc1 (single isomer, unassigned) [diastereomer of Example 31] |

Continued, molecule first:

| Compound | IC50 [1, 3] | IC50 [1, 4] | MAGL kinact/KI [2] | IC50 [1, 5] | IC50 ([1]; MAGL (T=30 min) IC50, 30 minute incubation of compound with MAGL enzyme before addition of 7-HCA substrate) |
| --- | --- | --- | --- | --- | --- |
| O=C(O[C@H](CO)C(F)(F)F)N1CCC2(CC1)CC(n1cc(C(F)(F)F)cn1)C2 [Example 1, (2R)-1,1,1-Trifluoro-3-hydroxypropan-2-yl 2-[4-(trifluoromethyl)-1H-pyrazol-1-yl]-7-azaspiro[3.5]nonane-7-carboxylate] | 2 nM | 12 nM | 22200 1/s per M |  |  |
| O=C(O[C@H](CO)C(F)(F)F)N1CCC2(CC1)CC(c1cccc(C(F)(F)F)n1)C2 [Example 76, (2R)-1,1,1-trifluoro-3-hydroxypropan-2-yl 2-[6-(trifluoromethyl)pyridin-2-yl]-7-azaspiro[3.5]nonane-7-carboxylate] | 0.2 nM | 2 nM | 206000 1/s per M |  |  |
| O=C(O[C@H](CO)C(F)(F)F)N1CCC2(CC1)CC(Cn1cc(C(F)(F)F)cn1)CO2 (single isomer, unassigned) [Example 3] | 7 nM | 47 nM | 10300 1/s per M |  |  |
| CN([C@H]1COC2(CCN(C(=O)O[C@H](CO)C(F)(F)F)CC2)C1)S(=O)(=O)C(C)(C)C [Example 6, (2R)-1,1,1-Trifluoro-3-hydroxypropan-2-yl (3R)-3-[(tert-butylsulfonyl)(methyl)amino]-1-oxa-8-azaspiro[4.5]decane-8-carboxylate] | 8 nM | 98 nM | 6630^b 1/s per M |  |  |
| O=C(O[C@H](CO)C(F)(F)F)N1CCC2(CC1)CC(Oc1ccc(F)cn1)C2 [Example 88, (2R)-1,1,1-trifluoro-3-hydroxypropan-2-yl 2-[(5-fluoropyridin-2-yl)oxy]-7-azaspiro[3.5]nonane-7-carboxylate] | 1 nM | 16 nM | 33000 1/s per M |  |  |
| O=C(O[C@H](CO)C(F)(F)F)N1CCC2(CC1)CC(Cn1cc(C(F)(F)F)cn1)CO2 (single isomer, unassigned) [Example 4] | 8 nM | 65 nM | 4710 1/s per M |  |  |
| O=C(O[C@H](CO)C(F)(F)F)N1CCC2(CCC(n3cc(F)cn3)CO2)CC1 (single isomer, unassigned) [Example 70] | 2 nM | 22 nM | 40400 1/s per M |  |  |
| O=C(O[C@H](CO)C(F)(F)F)N1CCC2(CC1)CC(Oc1cccc(C(F)F)c1)C2 [Example 60, (2R)-1,1,1-trifluoro-3-hydroxypropan-2-yl 2-[3-(difluoromethyl)phenoxy]-7-azaspiro[3.5]nonane-7-carboxylate] | 0.3 nM | 2 nM | 267000 1/s per M |  |  |
| Cc1cn(C2COC3(CCN(C(=O)O[C@H](CO)C(F)(F)F)CC3)C2)nc1C (single isomer, unassigned) [Example 54] | 4 nM | 21 nM | 26500 1/s per M |  |  |
| O=C(O[C@H](CO)C(F)(F)F)N1CCC2(CC1)CC(c1ccnc(C(F)(F)F)c1)C2 [Example 68, (2R)-1,1,1-trifluoro-3-hydroxypropan-2-yl 2-[2-(trifluoromethyl)pyridin-4-yl]-7-azaspiro[3.5]nonane-7-carboxylate] | 0.9 nM | 9 nM | 88300 1/s per M |  |  |
| Cc1cn(C2COC3(CCN(C(=O)OC(CO)C(F)(F)F)CC3)C2)nc1C (single isomer, unassigned) [diastereomer of Example 54] |  |  |  | 20 nM |  |
| O=C(O[C@H](CO)C(F)(F)F)N1CCC2(CC1)C[C@H](n1cc(F)cn1)CO2 [Example 10, (2R)-1,1,1-Trifluoro-3-hydroxypropan-2-yl (3S)-3-(4-fluoro-1H-pyrazol-1-yl)-1-oxa-8-azaspiro[4.5]decane-8-carboxylate] | 49 nM | 563 nM |  |  |  |
| CN(C1CCOC2(CCN(C(=O)OC(CO)C(F)(F)F)CC2)C1)S(=O)(=O)CC1CC1 (single isomer, unassigned) [diastereomer of Example 50] |  |  |  | 284 nM |  |
| Cc1cnn(C2COC3(CCN(C(=O)O[C@H](CO)C(F)(F)F)CC3)C2)c1 (single isomer, unassigned) [diastereomer of Example 24] |  |  |  | 60 nM |  |
| CC(C)(C)c1cnn(C2COC3(CCN(C(=O)OC(CO)C(F)(F)F)CC3)C2)c1 (single isomer, unassigned) [diastereomer of Example 21] |  |  |  | 7 nM |  |
